Measurements taken from paper PMC8253220, “Molecular design, synthesis and in vitro biological evaluation of thienopyrimidine–hydroxamic acids as chimeric kinase HDAC inhibitors: a challenging approach to combat cancer” (Journal of Enzyme Inhibition and Medicinal Chemistry, 2021).
Several values for one entry are separate records, joined by “and”; a condition that tells them apart may be missing. Equal entries are not always repeated.

Tests used:
Experiment in all cases: NCI one-dose screen
Type in all cases: cell-based, human
[1] = test system: SNB-19; details: CNS SNB-19, 10 µM single dose
Outline: (§1)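 At 10 μM, a single concentration, compounds were evaluated for antiproliferative effect in the NCI 60-line screen, with growth expressed relative to untreated control cells.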

[2] = test system: OVCAR-8; details: Ovarian OVCAR-8, 10 µM single dose
Outline: as §1

[3] = test system: SF-268; details: CNS SF-268, 10 µM single dose
Outline: (§2)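 Percent inhibition; single 10 μM dose; NCI-60 cell panel; untreated cells as reference.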

[4] = test system: NCI/ADR-RES; details: Ovarian NCI/ADR-RES, 10 µM single dose
Outline: as §1

[5] = test system: NCI-H226; details: NSCLC NCI-H226, 10 µM single dose
Outline: as §1

[6] = test system: SN12C; details: Renal SN12C, 10 µM single dose
Outline: as §1

[7] = test system: RXF 393; details: Renal RXF 393, 10 µM single dose
Outline: as §1

[8] = test system: MALME-3M; details: Melanoma MALME-3M, 10 µM single dose
Outline: as §1

[9] = test system: HCT-116; details: Colon HCT-116, 10 µM single dose
Outline: as §1

[10] = test system: HL-60(TB); details: Leukemia HL-60(TB), 10 µM single dose
Outline: as §1

[11] = test system: DU-145; details: Prostate DU-145, 10 µM single dose
Outline: as §1

[12] = test system: NCI-H322M; details: NSCLC NCI-H322M, 10 µM single dose
Outline: as §1

[13] = test system: HOP-62; details: NSCLC HOP-62, 10 µM single dose
Outline: as §1

[14] = test system: SR; details: Leukemia SR, 10 µM single dose
Outline: as §1

[15] = test system: COLO 205; details: Colon COLO 205, 10 µM single dose
Outline: as §1

[16] = test system: NCI-H522; details: NSCLC NCI-H522, 10 µM single dose
Outline: as §1

[17] = test system: PC-3; details: Prostate PC-3, 10 µM single dose
Outline: (§3)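 One concentration (10 μM) applied to each line of the full NCI-60 panel; percent growth compared against untreated cells.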

[18] = test system: HS 578T; details: Breast HS 578T, 10 µM single dose
Outline: as §1

[19] = test system: SF-539; details: CNS SF-539, 10 µM single dose
Outline: as §2

[20] = test system: SF-295; details: CNS SF-295, 10 µM single dose
Outline: as §1

[21] = test system: EKVX; details: NSCLC EKVX, 10 µM single dose
Outline: as §1

[22] = test system: MOLT-4; details: Leukemia MOLT-4, 10 µM single dose
Outline: as §2

[23] = test system: MCF7; details: Breast MCF7, 10 µM single dose
Outline: as §2

[24] = test system: MDA-MB-231/ATCC; details: Breast MDA-MB-231/ATCC, 10 µM single dose
Outline: as §1

[25] = test system: CAKI-1; details: Renal CAKI-1, 10 µM single dose
Outline: as §1

[26] = test system: OVCAR-3; details: Ovarian OVCAR-3, 10 µM single dose
Outline: as §1

[27] = test system: BT-549; details: Breast BT-549, 10 µM single dose
Outline: as §1

[28] = test system: TK-10; details: Renal TK-10, 10 µM single dose
Outline: as §1

[29] = test system: ACHN; details: Renal ACHN, 10 µM single dose
Outline: as §1

[30] = test system: U251; details: CNS U251, 10 µM single dose
Outline: as §1

[31] = test system: SK-MEL-28; details: Melanoma SK-MEL-28, 10 µM single dose
Outline: as §3

[32] = test system: A549/ATCC; details: NSCLC A549/ATCC, 10 µM single dose
Outline: as §1

[33] = test system: CCRF-CEM; details: Leukemia CCRF-CEM, 10 µM single dose
Outline: as §1

[34] = test system: UACC-62; details: Melanoma UACC-62, 10 µM single dose
Outline: as §1

[35] = test system: NCI-H460; details: NSCLC NCI-H460, 10 µM single dose
Outline: as §1

[36] = test system: SW-620; details: Colon SW-620, 10 µM single dose
Outline: as §3

[37] = test system: LOX IMVI; details: Melanoma LOX IMVI, 10 µM single dose
Outline: as §1

| SMILES | Growth Percent [1] [%] | Growth Percent [2] | Growth Percent [3] [%] | Growth Percent [4] | Growth Percent [5] | Growth Percent [6] | Growth Percent [7] | Growth Percent [8] | Growth Percent [9] | Growth Percent [10] | Growth Percent [11] | Growth Percent [12] | Growth Percent [13] | Growth Percent [14] | Growth Percent [15] | Growth Percent [16] | Growth Percent [17] | Growth Percent [18] | Growth Percent [19] | Growth Percent [20] | other results |
| --- | --- | --- | --- | --- | --- | --- | --- | --- | --- | --- | --- | --- | --- | --- | --- | --- | --- | --- | --- | --- | --- |
| COc1cccc(NC(=O)Nc2ccc(Nc3ncnc4sc(C(=O)NCCCC(=O)NO)c(C)c34)cc2)c1 [Compound 12b, 1–(4-(6-((4-(hydroxyamino)-4-oxobutyl)carbamoyl)-5-methylthieno[2,3-d]pyrimidin-4-ylamino)phenyl)-3–(3-methoxyphenyl)urea] | 97.9 | 103.6% and 103.67% | 95.1 | 101.6% and 101.63% | 96.6% and 96.68% | 104.5% and 104.52% | 110.4% and 110.44% | 95.2% and 95.25% | 99.2% and 99.29% | 102.4% | 98.5% and 98.54% | 95.9% and 95.94% | 100.4% and 100.49% | 108.2% and 108.25% | 111.3% and 111.31% | 81.7% and 81.76% | 98.6% and 98.65% | 99.2% | 98.2% and 98.26% | 102.5% and 102.51% | Growth Percent [21]: 92.1% and 92.11%; Growth Percent [22]: 104.7% and 104.76%; Growth Percent [23]: 91.5%; Growth Percent [24]: 97.0% and 97.05%; Growth Percent [25]: 97.1% and 97.14%; Growth Percent [26]: 99.3% and 99.38%; Growth Percent [27]: 105.5% and 105.57%; Growth Percent [28]: 107.7% and 107.72%; Growth Percent [29]: 98.6% and 98.68%; Growth Percent [30]: 92.8% and 92.88%; Growth Percent [31]: 104.0% and 104.05%; Growth Percent [32]: 105.8% and 105.84%; Growth Percent [33]: 103.5% and 103.52%; Growth Percent [34]: 95.3% and 95.39%; Growth Percent [35]: 99.1%; Growth Percent [36]: 101.5% and 101.51%; Growth Percent [37]: 90.7% and 90.77% |
| Cc1c(C(=O)NO)sc2ncnc(Nc3ccc(NC(=O)Nc4ccccc4)cc3)c12 [Compound 7a, 1–(4-(6-(hydroxycarbamoyl)-5-methylthieno[2,3-d]pyrimidin-4-ylamino)phenyl)-3-phenylurea] | 100.2 | 106.3% and 106.33% | 91.7 | 102.1% and 102.16% | 99.4% and 99.47% | 102.8% and 102.86% | 110.2% | 89.5% and 89.51% | 93.8% and 93.86% | 102.2% and 102.25% | 100.2% and 100.26% | 98.4% and 98.47% | 102.6% and 102.62% | 99.1% and 99.16% | 106.8% and 106.84% | 92.0% and 92.04% | 97.3% and 97.34% | 97.7% and 97.71% | 96.0% | 96.2% and 96.23% | Growth Percent [21]: 88.9% and 88.95%; Growth Percent [22]: 103.9% and 103.94%; Growth Percent [23]: 90.7% and 90.78%; Growth Percent [24]: 91.1% and 91.12%; Growth Percent [25]: 91.6% and 91.67%; Growth Percent [26]: 105.4% and 105.48%; Growth Percent [27]: 87.6%; Growth Percent [28]: 108.5% and 108.59%; Growth Percent [29]: 102.3% and 102.35%; Growth Percent [30]: 89.3% and 89.34%; Growth Percent [31]: 104.3% and 104.39%; Growth Percent [32]: 103.8% and 103.82%; Growth Percent [33]: 97.4% and 97.44%; Growth Percent [34]: 101.7% and 101.73%; Growth Percent [35]: 100.3% and 100.39%; Growth Percent [36]: 98.4% and 98.44%; Growth Percent [37]: 90.5% and 90.57% |
